Measurements reported in patent US11512075B2 (priority 2017, dated 2022).
Entries after “also recorded” stand apart in the source; their conditions may differ.

What was measured:
human KOR [1] = target: T1, human KOR (Homo sapiens, UniProt P41145); type: binding
[2] = test system: chloroquine phosphate-induced pruritus in mice; set-up: species or system C57BL/6J mice; settings: mouse, in vivo
human KOR [3] = target: T1, human KOR; type: cell-based

Row | SMILES | affinity for the κ-OR (radioligand competition binding, Ki) (human KOR [1]) | suppression of itch (scratching) response [2] | KOR agonist potency (human KOR [3]) | efficacy in G protein signaling (inhibition of cAMP accumulation) (human KOR [3])
1 | COC(=O)[C@@H]1C[C@H](OC(C)=O)C(=O)[C@@H]2[C@H]3C[C@@H](c4ccoc4)OC(=O)[C@@H]3CC[C@]21C [20-nor-SalA, 20-nor-salvinorin A] | high affinity | suppressed the itch response; also recorded: similarly effective to SalA and another conventional agonist (U50,488H) | high potency | full agonist
2 | COC(=O)[C@@H]1C[C@H](OC(C)=O)C(=O)[C@H]2[C@@]1(C)CC[C@H]1C(=O)O[C@H](c3ccoc3)C[C@]21C [SalA, salvinorin A, reference compound] |  | suppressed the itch response |  | slightly higher affinity and efficacy
